Data reported in patent publication US20230111504A1, “COR[…] AND AVERMECTINS” (Huvepharma EOOD, priority 2020, published 2023).
Like-named read-outs stand apart in the source and are kept apart here.

Columns and labels:
[1] = rats; cited from earlier work
COVID-19 [2] = experiment: COVID-19 clinical trial: clinical improvement on WHO 9-category ordinal scale; assay type: in vivo, human
Protocol: (§1) Inclusion Criteria • 1. Male or female patients at least 18 years and up to 75 years old • 2. Signed informed consent • 3. Admitted to hospital for treatment of COVID-19. • 4. Patient within 7 days from symptom onset and within 72 hours after laboratory diagnosis (SARS-CoV-2 RT-PCR) • 5. Mild to Moderate COVID-19 disease defined as clinical status category up to 3 on the WHO 9-point ordinal scale, and/or NEWS2 score of 0 to 4 inclusive. • Hospitalized, no oxygen treatment • 6. Presence of at least 1 symptom characteristic for COVID-19 disease, e.g. fever, cough, sore throat, myalgia, fatigue, GI disorders, skin lesions, anosmia, ageusia, headache, etc • 7. In women of childbearing potential, negative pregnancy test and commitment to use contraceptive method throughout the study.
(§2) Patients are screened for 24-36 hours. […] It is encouraged to screen potential participants immediately at the day of hospitalization (including informed consent, assessment of inclusion/exclusion criteria, screening laboratory tests all done by the local central lab, assessment of clinical symptoms criteria) and randomize patients on the same day (thus, Screening period and Day 1 will coincide). To assess eligibility criteria, central local laboratory values obtained within 24-36 hours of randomization will be used, except for pre-study testing of positive status of COVID-19 infection where a 72-hours window.
The secondary endpoints, related to the secondary study objectives are the following: • a. Number of patients achieving clinical improvement on Day 7 • b. Number of patients achieving clinical improvement on Day 14 • c. Number of patients achieving clinical recovery on Day 7 • d. Number of patients achieving clinical recovery on Day 14
(§3) Day 1 is defined as the day of the first IMP/placebo administration.
The clinical disease severity during the study will be assessed based on the WHO Ordinal Scale for Clinical Status (Table 2). The WHO scale is a 9-category ordinal scale and was developed to have a standardized measure of the COVID-19 disease severity. The scale comprises patient status (outpatient or hospitalized), virus status (infected yes or no), limitation of activities, oxygen support, and organ support.
The same picture was observed on Day 5, with difference 18% (p=0.03 . . . ), regarding the endpoint Clinical improvement. This endpoint was measured using WHO 9-category ordinal scale, developed to have a standardized measure of the COVID-19 disease severity. Clinical improvement is defined as a decrease on WHO ordinal scale score by at least one point. For our statistical calculations from data obtained from the clinical trials we used the method described above i.e. O'Brien-Fleming method for normally distributed data.

[3] = fourteen-week study, dogs; cited from earlier work
COVID-19 [4] = experiment: COVID-19 clinical trial: time to hospital discharge; assay type: in vivo, human; conditions: p=0.2755
Protocol: as §1
as §2, with “window. […]” for “window.”

[5] = repeated dose, 2 weeks, rhesus monkeys; cited from earlier work
[6] = variety of species; cited from earlier work
[7] = mice; cited from earlier work
SARS-CoV-2 = experiment: COVID-19 clinical trial: viral clearance in upper respiratory tract swab samples (RT-PCR); assay type: in vivo, human
Protocol: as §1, §2
Primary endpoint based on which the primary study objective will be assessed is proportion of patients who have shown negative SARS-CoV-2 PCR test on Day 7.
as §3
Viral Clearance in Upper Respiratory Tract Swab Samples (Qualitative)—Remission
Upper respiratory tract swab samples will be collected on Days 3, 4, 5, 6, 7, 9, 12 and 14 or until two negative results are obtained. Between Day 15 and Day 28 RT-PCR shall be done upon the discretion of the Investigator until 2 consecutive negative tests.
No further RT-PCR tests will be done after 2 consecutive negative tests are obtained at any time point of the study. Swab samples should be obtained from the nasopharynx and oropharynx with two different swabs and combined in one tube, containing universal transport media. Samples are collected preferably in the mornings of each study day. Full instructions for collection, preparation, labelling, storage and shipment of samples are provided in the Laboratory Manual.

[8] = cited from earlier work; for mean peak plasma concentration of the major component (H2B1a): single 12-mg dose (mean 165 mcg/kg)
[9] = rabbits; cited from earlier work
[10] = system: human fibroblast cell culture; conditions: cited from earlier work
[11] = dogs; cited from earlier work
C reactive protein = experiment: COVID-19 clinical trial: predictive marker C reactive protein; assay type: in vivo, human; conditions: Day 14
[12] = people treated with ivermectin; cited from earlier work
[13] = fourteen-week study, rats; cited from earlier work
[14] = rhesus monkeys, cited from earlier work
[15] = various species; cited from earlier work
mouse lymphoma = conditions: cited from earlier work
[16] = acute oral, mice; cited from earlier work
[17] = acute oral, rats; relative to 200 μg/kg in mice; cited from earlier work
D-dimer = experiment: COVID-19 clinical trial: predictive marker D-dimer; assay type: in vivo, human

Substance: ivermectin
- oral dose causing cleft palates [1]: 10 mg/kg/day
- Clinical improvement versus placebo arm (COVID-19 [2]; Day 4, p=0.02..., decrease on WHO ordinal scale by at least one point): statistically significant difference
- Clinical improvement, difference versus placebo arm (COVID-19 [2]; Day 5, p=0.03...): 18%
- Clinical improvement by visit day (COVID-19 [2]; FIG. 3, later difference statistically insignificant): better results at days 4 and 5
- overall clinical benefit versus Placebo treatment arm (COVID-19 [2]; early days of infection (day 4 and day 5 after initial dose)): definitely shows clinical benefit
- dose with no adverse effects [3]: 500 µg/kg/day
- Time to hospital discharge, difference between arms (COVID-19 [4]): no statistically significant difference
- dose with no adverse effects [5]: up to 1,200 μg/kg/day
- tolerability of a 200 μg/kg dose [6]: generally well tolerated
- oral dose causing cleft palates [7]: 0.4 mg/kg/day
- effect on viral clearance (SARS-CoV-2; Day 4, immediately after treatment, 2 consecutive negative PCR tests): beneficial effect on the viral clearance
- patients with negative PCR test results (2 consecutive negative tests) (SARS-CoV-2; Day 4, 400 μg/kg/day peroral Days 1-3 plus SoC, placebo arm 42%): 52%
- Day of second negative PCR test, Mean (SARS-CoV-2; N=50, 400 μg/kg/day peroral Days 1-3 plus SoC): 5.52
- day by which the effect appears (SARS-CoV-2; PCR test endpoint): < 7 days
- Day of second negative PCR test, Difference Reference minus Test (SARS-CoV-2; p-value 0.3407, statistically insignificant): 0.54 days
- mean peak plasma concentration of the major component (H2B1a) ([8]; first of two studies, fasting healthy volunteers, range 16.4-101.1): 46.6 (±21.9) ng/mL
- period of excretion in the feces ([8]; ivermectin and/or metabolites, excreted almost exclusively in the feces): ~12 days
- plasma half-life ([8]; man, oral administration): approximately 18 hours
- plasma concentration versus dose ([8]; oral administration): approximately proportional to the dose
- administered dose excreted in the urine ([8]; oral): less than 1%
- mean peak plasma concentration of the major component (H2B1a) ([8]; second of two studies, fasting healthy volunteers, range 13.9-68.4): 30.6 (±15.6) ng/mL
- time of peak plasma concentration after dosing ([8]; single 12-mg dose, fasting healthy volunteers): approximately 4 hours
- dose causing cleft palates and clubbed feet [9]: 3 mg/kg/day
- unscheduled DNA synthesis [10]: did not induce
- single oral dose with no significant lethality [11]: up to 10 mg/kg
- CRP mean value (C reactive protein): 13.76 mg/L
- CRP median value (C reactive protein): 3.70 mg/L
- common side effects [12]: headache, dizziness, drowsiness, muscle pain, abdominal pain, nausea, vomiting or diarrhea, pruritus, fatigue, hypotension
- dose with no adverse effects [13]: 400 µg/kg/day
- minimum toxic dose ([14]; acute oral): 2,000 μg/kg
- toxic effects (emesis, mydriasis, sedation) at high doses ([14]; doses up to 24 mg/kg (120-fold the clinical dose)): only slight increases in the observed toxic effects
- breeding performance [15]: has not been adversely affected
- mouse lymphoma mutation assay result (mouse lymphoma): negative
- dose producing tremors and ataxia [16]: 0.2 mg/kg
- dose producing tremors and ataxia [17]: slightly higher doses
- D-dimer mean value (D-dimer; Day 3): 395.8 ng/mL
- D-dimer mean value (D-dimer; Day 14): 561.69 ng/mL
